# Columns and labels:
# [1] = tested on: Staphylococcus aureus; test: Antibacterial activity against methicillin-resistant Staphylococcus aureus ATCC 43300 incubated for overnight measured after 20 to 24 hrs by broth microdilution method; type: functional
# [2] = tested on: Staphylococcus aureus; test: Antibacterial activity against methicillin-susceptible Staphylococcus aureus ATCC 29213 incubated for overnight measured after 20 to 24 hrs by broth microdilution method; type: functional
# [3] = tested on: Enterococcus faecalis; test: Antibacterial activity against vancomycin-resistant Enterococcus faecalis ATCC 51299 incubated for overnight measured after 20 to 24 hrs by broth microdilution method; type: functional
# [4] = Clearance in ICR mouse plasma at 10 mg/kg, iv by LC-MS/MS analysis; type: ADME, organism-based
# [5] = Volume of distribution at steady state in ICR mouse plasma at 10 mg/kg, iv by LC-MS/MS analysis; type: ADME, organism-based; settings: read-out: Vdss
# [6] = AUC (0 to 24 hrs) in ICR mouse plasma at 10 mg/kg, iv by LC-MS/MS analysis; type: ADME, organism-based; parameters: dose 10 mg/kg, time < 24 hr, route intravenous
# [7] = tested on: Staphylococcus aureus; test: Antibacterial activity against methicillin-resistant Staphylococcus aureus 4N216 infected in ICR mouse assessed as mouse survival rate at 20 mg/kg, iv administered as single dose 30 mins post-infection measured day 7 post infection relative to control; type: functional; settings: 4N216, iv
# [8] = Cmax in ICR mouse plasma at 10 mg/kg, iv measured after 20 mins by LC-MS/MS analysis; type: ADME, organism-based; parameters: dose 10 mg/kg, route intravenous
# [9] = Half life in ICR mouse plasma at 10 mg/kg, iv by LC-MS/MS analysis; type: ADME, organism-based
# [10] = tested on: Staphylococcus aureus; test: Antibacterial activity against methicillin-resistant Staphylococcus aureus M013 incubated for overnight measured after 20 to 24 hrs by broth microdilution method; type: functional
# [11] = tested on: Pseudomonas aeruginosa; test: Antibacterial activity against Pseudomonas aeruginosa ATCC 27853 incubated for overnight measured after 20 to 24 hrs by broth microdilution method; type: functional
# [12] = tested on: Enterococcus faecalis; test: Potency index, ratio of […] MIC to compound MIC against vanomycin-resistant Enterococcus faecalis ATCC 51299
# [13] = tested on: Klebsiella pneumoniae; test: Antibacterial activity against Klebsiella pneumoneae ATCC 700603 incubated for overnight measured after 20 to 24 hrs by broth microdilution method; type: functional
# [14] = tested on: Staphylococcus aureus; test: Antibacterial activity against methicillin-susceptible Staphylococcus aureus M056 incubated for overnight measured after 20 to 24 hrs by broth microdilution method; type: functional
# [15] = tested on: Staphylococcus aureus; test: Antibacterial activity against methicillin-resistant Staphylococcus aureus Y069 incubated for overnight measured after 20 to 24 hrs by broth microdilution method; type: functional
# [16] = tested on: Acinetobacter baumannii; test: Antibacterial activity against Acinetobacter baumannii ATCC 19606 incubated for overnight measured after 20 to 24 hrs by broth microdilution method; type: functional
# [17] = tested on: Staphylococcus aureus; test: Antibacterial activity against methicillin-resistant Staphylococcus aureus C217 incubated for overnight measured after 20 to 24 hrs by broth microdilution method; type: functional
# [18] = tested on: Staphylococcus aureus; test: Antibacterial activity against methicillin-resistant Staphylococcus aureus L166 incubated for overnight measured after 20 to 24 hrs by broth microdilution method; type: functional
# [19] = tested on: Staphylococcus aureus; test: Antibacterial activity against vancomycin-intermediate and daptomycin-nonsusceptible methicillin-resistant Staphylococcus aureus Z172 incubated for overnight measured after 20 to 24 hrs by broth microdilution method; type: functional
# [20] = tested on: Escherichia coli; test: Antibacterial activity against Escherichia coli ATCC 25922 incubated for overnight measured after 20 to 24 hrs by broth microdilution method; type: functional
# [21] = tested on: Staphylococcus aureus; test: Antibacterial activity against methicillin-resistant Staphylococcus aureus Z234 incubated for overnight measured after 20 to 24 hrs by broth microdilution method; type: functional
# [22] = tested on: Staphylococcus aureus; test: Antibacterial activity against methicillin-resistant Staphylococcus aureus N043 incubated for overnight measured after 20 to 24 hrs by broth microdilution method; type: functional
# [23] = tested on: Staphylococcus aureus; test: Antibacterial activity against methicillin-resistant Staphylococcus aureus 4N216 incubated for overnight measured after 20 to 24 hrs by broth microdilution method; type: functional
# [24] = tested on: Mus musculus; test: Acute toxicity in ICR mouse assessed as increase in body weight at 100 mg/kg, iv measured daily for 2 weeks; type: organism-based; settings: in vivo, 336 h
# [25] = tested on: Mus musculus; test: Acute toxicity in ICR mouse assessed as increase in survival at 100 mg/kg, iv measured after 2 weeks; type: organism-based; settings: in vivo, 336 h
# [26] = tested on: Staphylococcus aureus; test: Potency index, ratio of vanomycin MIC to compound MIC against vancomycin-intermediate and daptomycin-nonsusceptible methicillin-resistant Staphylococcus aureus Z172; type: functional
compound,measurement,setting,value
OC(CNCCc1cccc(F)c1)Cn1ccc2cc(Br)ccc21 (stereo not given),MIC,[1],8 µg/mL
same,MIC,[2],16 to 32 µg/mL
CN[C@H](CC(C)C)C(=O)N[C@H]1C(=O)N[C@@H](CC(N)=O)C(=O)N[C@H]2C(=O)N[C@H]3C(=O)N[C@H](C(=O)N[C@H](C(=O)O)c4cc(O)cc(O)c4-c4cc3ccc4O)[C@H](O)c3ccc(c(Cl)c3)Oc3cc2cc(c3O[C@@H]2O[C@H](CO)[C@@H](O)[C@H](O)[C@H]2O[C@H]2C[C@](C)(N)[C@H](O)[C@H](C)O2)Oc2ccc(cc2Cl)[C@H]1O [VANCOMYCIN],MIC,[3],8 to 16 µg/mL
same,clearance,[4],11.7 mL/min/kg
same,Vd,[5],0.3 L/kg
same,AUC(0-t) at 24 h,[6],13700 ng·h/mL
same,survival at 20 mg/kg,[7],100%
same,Cmax,[8],58500 ng/mL
same,half-life,[9],0.6 h
same,MIC,[10],≤ 0.5 µg/mL
OC(CNc1cc(Cl)nc(Cl)n1)Cn1c2ccc(Br)cc2c2cc(Br)ccc21 (stereo not given),MIC,[1],> 32 µg/mL
same,MIC,[2],> 32 µg/mL
OC(CNCCc1cccc(F)c1)Cn1c2ccc(Br)cc2c2cc(Br)ccc21 (stereo not given),MIC,[1],1 to 2 µg/mL
same,MIC,[2],1 to 2 µg/mL
Oc1ccccc1CCNCC(O)Cn1c2ccc(Br)cc2c2cc(Br)ccc21 (stereo not given),MIC,[1],1 to 2 µg/mL
same,MIC,[2],1 to 2 µg/mL
OC(CNCCc1c[nH]c2ccc(Cl)cc12)Cn1c2ccc(Br)cc2c2cc(Br)ccc21 (racemic),MIC,[3],1 µg/mL
same,MIC,[11],> 64 µg/mL
same,Ratio,[12],4 - 18
same,MIC,[13],> 64 µg/mL
same,MIC,[1],1 µg/mL
same,MIC,[14],1 µg/mL
same,MIC,[15],1 µg/mL
same,MIC,[2],1 µg/mL
same,MIC,[16],> 64 µg/mL
same,MIC,[17],1 µg/mL
same,MIC,[18],1 µg/mL
same,MIC,[19],2 µg/mL
same,MIC,[20],> 64 µg/mL
same,MIC,[21],1 µg/mL
same,MIC,[22],1 µg/mL
same,MIC,[23],1 µg/mL
same,MIC,[10],1 µg/mL
O[C@@H](CNCCc1c[nH]c2cc(F)ccc12)Cn1c2ccc(Cl)cc2c2cc(Cl)ccc21,MIC,[1],0.5 to 1 µg/mL
same,MIC,[2],0.5 to 1 µg/mL
Oc1ccc(CCNCC(O)Cn2c3ccc(Br)cc3c3cc(Br)ccc32)cc1O (stereo not given),MIC,[1],16 µg/mL
same,MIC,[2],16 µg/mL
OC(CNCc1c[nH]c2cc(F)ccc12)Cn1c2ccc(Br)cc2c2cc(Br)ccc21 (stereo not given),MIC,[1],2 µg/mL
same,MIC,[2],2 µg/mL
OC(CNCCc1c[nH]c2cc(F)ccc12)Cn1c2ccccc2c2ccccc21 (stereo not given),MIC,[1],4 µg/mL
same,MIC,[2],4 µg/mL
O[C@H](CNCCc1c[nH]c2cc(F)ccc12)Cn1c2ccc(Cl)cc2c2cc(Cl)ccc21,MIC,[1],0.5 to 1 µg/mL
same,MIC,[2],0.5 to 1 µg/mL
OC(CNCCc1c[nH]c2cc(F)ccc12)Cn1c2ccc(Br)cc2c2cc(Br)ccc21 (stereo not given),MIC,[3],2 µg/mL
same,MIC,[11],> 64 µg/mL
same,MIC,[13],> 64 µg/mL
same,Activity,[24],Non-Toxic
same,MIC,[1],1 µg/mL
same,MIC,[14],1 to 2 µg/mL
same,MIC,[15],1 µg/mL
same,MIC,[2],1 µg/mL
same,MIC,[16],16 µg/mL
same,MIC,[17],1 µg/mL
same,Activity,[25],Non-Toxic
same,MIC,[18],1 µg/mL
same,MIC,[19],2 µg/mL
same,MIC,[20],8 to 16 µg/mL
same,MIC,[21],1 µg/mL
same,MIC,[22],1 µg/mL
same,MIC,[23],1 µg/mL
same,MIC,[10],1 µg/mL
O[C@@H](CNCCc1c[nH]c2ccc(Cl)cc12)Cn1c2ccc(Br)cc2c2cc(Br)ccc21,MIC,[1],1 µg/mL
same,MIC,[2],1 µg/mL
OC(Cn1cncn1)Cn1c2ccc(Br)cc2c2cc(Br)ccc21 (stereo not given),MIC,[1],16 µg/mL
same,MIC,[2],16 µg/mL
OC(CNCCc1cccc(Cl)c1)Cn1c2ccc(Cl)cc2c2cc(Cl)ccc21 (stereo not given),MIC,[3],2 µg/mL
same,MIC,[11],> 64 µg/mL
same,MIC,[13],> 64 µg/mL
same,MIC,[14],1 µg/mL
same,MIC,[15],4 µg/mL
same,MIC,[16],> 64 µg/mL
same,MIC,[17],4 µg/mL
same,MIC,[18],4 µg/mL
same,MIC,[19],4 µg/mL
same,MIC,[20],> 64 µg/mL
same,MIC,[21],4 µg/mL
same,MIC,[22],4 µg/mL
same,MIC,[23],0.5 to 1 µg/mL
same,MIC,[10],4 µg/mL
OC(CNCCc1c[nH]cn1)Cn1c2ccc(Br)cc2c2cc(Br)ccc21 (stereo not given),MIC,[1],4 µg/mL
same,MIC,[2],4 µg/mL
OC(CNCCc1c[nH]c2cc(F)ccc12)Cn1c2ccc(Cl)cc2c2cc(Cl)ccc21 (racemic),MIC,[3],1 µg/mL
same,clearance,[4],6.9 mL/min/kg
same,MIC,[11],> 64 µg/mL
same,Vd,[5],4.9 L/kg
same,Ratio,[12],4 - 18
same,AUC(0-t) at 24 h,[6],20500 ng·h/mL
same,survival at 20 mg/kg,[7],75%
same,MIC,[13],> 64 µg/mL
same,Activity,[24],Non-Toxic
same,Cmax,[8],29700 ng/mL
same,MIC,[1],0.5 to 1 µg/mL
same,MIC,[14],1 µg/mL
same,half-life,[9],10.3 h
same,MIC,[15],1 µg/mL
same,MIC,[2],0.5 to 1 µg/mL
same,MIC,[16],8 µg/mL
same,MIC,[17],1 µg/mL
same,Activity,[25],Non-Toxic
same,MIC,[18],1 µg/mL
same,MIC,[19],1 µg/mL
same,MIC,[20],4 µg/mL
same,MIC,[21],1 µg/mL
same,Ratio,[26],4 - 16
same,MIC,[22],1 µg/mL
same,MIC,[23],0.5 µg/mL
same,MIC,[10],1 µg/mL
O[C@H](CNCCc1c[nH]c2ccc(Cl)cc12)Cn1c2ccc(Br)cc2c2cc(Br)ccc21,MIC,[1],1 µg/mL
same,MIC,[2],1 µg/mL
OC(CNc1ccc(C(F)(F)F)cc1)Cn1c2ccc(Cl)cc2c2cc(Cl)ccc21 (stereo not given),MIC,[3],2 µg/mL
same,MIC,[11],> 64 µg/mL
same,MIC,[13],> 64 µg/mL
same,MIC,[14],1 µg/mL
same,MIC,[15],1 µg/mL
same,MIC,[16],> 64 µg/mL
same,MIC,[17],1 µg/mL
same,MIC,[18],1 µg/mL
same,MIC,[19],1 µg/mL
same,MIC,[20],> 64 µg/mL
same,MIC,[21],1 µg/mL
same,MIC,[22],1 µg/mL
same,MIC,[23],1 µg/mL
same,MIC,[10],1 µg/mL
OC(CNc1nc(Cl)nc2ccccc12)Cn1c2ccc(Br)cc2c2cc(Br)ccc21 (stereo not given),MIC,[1],> 32 µg/mL
same,MIC,[2],> 32 µg/mL

# Reference: ChEMBL document CHEMBL3868635, “Bromomethylthioindole Inspired Carbazole Hybrids as Promising Class of Anti-MRSA Agents” (ACS Med Chem Lett, 2016)
